Results from US20130236619A1, “ANTI-MICROBIAL FOOD PROCESSING COMPOSITIONS INCLUDING CERAGENIN COMPOUNDS AND METHODS OF USE” (Brigham Young University, priority 2012, published 2013).

What was measured:
[1] = test system: Salmonella bacteria; test: Example 2: Salmonella inoculated poultry carcasses dipped in wash composition; details: peracetic acid wash composition
Procedure: (§1) Example 2 was performed to determine the effectiveness of an anti-microbial wash composition including a ceragenin compound in controlling growth of Salmonella bacteria by fighting off a Salmonella inoculation. Example 3 was similarly performed to determine the effectiveness of the wash composition in controlling growth of Campylobacter bacteria by fighting off a Campylobacter inoculation. Examples 2 and 3 simulate the effectiveness of the present anti-microbial wash compositions to kill Salmonella and Campylobacter on a poultry carcass where the poultry carcass has become contaminated with Salmonella bacteria or Campylobacter bacteria.
(§2) A total of 15 poultry carcasses (chicken carcasses) were sampled for these tests. The 15 poultry carcasses were divided into five groups of three each. Three carcasses were left untreated to serve as a negative control in order to observe natural levels of bacteria present on the carcass. The remaining 12 carcasses were then inoculated with 1 mL of Salmonella and 1 mL of Campylobacter. The carcasses were allowed to dry for 20 minutes in order for the bacteria to adhere to the surface of the poultry carcasses. One group of three of the inoculated poultry carcasses, designated the positive control, were then rinsed with a wash composition including no anti-microbial agent to determine the level of bacteria after inoculation. […]

[2] = test system: spoilage microorganisms; test: Example 1: shelf-life of poultry carcasses dipped in wash composition; details: wash composition including 100 ppm peracetic acid
Procedure: A study was performed to determine the effectiveness of an anti-microbial rinse composition including relatively low concentrations of a ceragenin compound in controlling growth of bacteria and extending shelf-life of a poultry food product. Three different wash compositions were prepared. Aqueous wash composition 1 (the control) included no ceragenin compound or other anti-microbial agent. Aqueous wash composition 1 was simply tap water. […] The ceragenin compound employed was CSA-44. Poultry carcasses (chicken carcasses) were dipped (e.g., immersed) for 30 seconds into the given wash composition and mechanically agitated to mimic the action of a finishing chiller used in commercial processing. After the 30 second application time, the carcasses were immediately vacuum packaged and stored in a refrigerator at 4° C. Three carcasses from each treatment were tested every third day beginning at day 0 and ending at day 21 to monitor their associated levels of microorganisms.
Poultry is considered to be spoiled when it reaches a level of 10^6 Colony Forming Units (“CFUs”)/ml of spoilage microorganisms in the rinsate. The control, i.e., poultry carcasses treated with wash composition 1, reached this limit on day 12. […] By day 18, the poultry carcasses treated with wash composition 2 had exceeded this limit with a value of about 10^6.5 CFUs/ml. […]

[3] = test system: Campylobacter bacteria; test: Example 3: Campylobacter inoculated poultry carcasses dipped in wash composition; details: peracetic acid wash composition
Procedure: as §1, §2

## CC(=O)OO [peracetic acid]
[1]
  reduction of the presence of Salmonella bacteria: effective in reducing
[2]
  extension of shelf-life relative to a control wash composition: no extension of shelf-life
[3]
  reduction of the presence of Campylobacter bacteria: effective in reducing
